Measurements taken from PMC4840437, “Crystal Structures and Binding Dynamics of Odorant-Binding Protein 3 from two aphid species Megoura viciae and Nasonovia ribisnigri” (Scientific Reports, 2016).
Like-named read-outs stand apart in the source and are kept apart here.

Columns and labels:
[1] = target: T1, MvicOBP3 (Megoura viciae, UniProt A0A0S2E5N6); assay: Competitive fluorescence binding assay (NPN displacement)
T1 sequence (A0A0S2E5N6 2-122): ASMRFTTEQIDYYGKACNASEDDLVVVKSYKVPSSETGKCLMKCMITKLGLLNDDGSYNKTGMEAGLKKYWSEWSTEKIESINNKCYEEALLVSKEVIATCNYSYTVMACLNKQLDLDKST
Method: (§1) Proteins were dissolved in 20 mM Tris-HCl buffer pH 7.4 and emission fluorescence spectra were recorded on a LS50 Luminescence Spectrometer (PerkinElmer, Buckinghamshire, UK) at 22 °C in a right angle configuration, with a 1 cm light path quartz cuvette and 5–10 nm slits for excitation and emission. […] The probe was excited at 337 nm and emission spectra were recorded between 380 and 450 nm. […] For determining binding constants, the intensity values corresponding to the maximum fluorescence emission were plotted against free ligand concentrations. We use GraphPad (http://www.graphpad.com/guides/prism/6/curve-fitting/index.htm?reg_one_site_competition_ki.htm) to determine the equilibrium dissociation constant Ki of ligand by measuring its competition for NPN and nonlinear regression curve fitting to the one site competitive binding model. This model fits the Ki of the ligand directly using the fixed concentration of NPN and the dissociation constant for NPN KNPN obtained from a direct fluorescence titration and nonlinear regression curve fitting to one site binding model Y = Bmax*X/(KNPN + X) + NS*X (X is the NPN concentration, Bmax is the maximum specific binding in the same units as Y, NS is the slope of nonspecific binding in Y units divided by X units). The corrected Ki is fitted directly rather than fitting an IC50 and modifying it with the Cheng and Prusoff equation[48]. The analysis assumes that the protein has one binding site and 100% active, and that the binding is reversible and at equilibrium. Tested compounds were EβF (Bedoukian Research, Danbury, CT, USA), β-pinene, (−)-α-pinene and (+)-limonene (Sigma, St. Louis, MO).

[2] = target: T2, NribOBP3 (Nasonovia ribisnigri, UniProt A0A0M4AUH6); assay: as above
T2 sequence (A0A0M4AUH6 1-119): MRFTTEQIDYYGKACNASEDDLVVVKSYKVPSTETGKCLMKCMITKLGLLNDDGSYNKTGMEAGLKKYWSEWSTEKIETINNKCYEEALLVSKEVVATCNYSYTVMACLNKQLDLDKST
Method: as §1

[3] = target: T1, MvicOBP3; assay: Direct fluorescence titration of the probe NPN; type: binding; conditions: recombinant MvicOBP3, 2 μM protein, 20 mM Tris-HCl pH 7.4, 22 °C; read-out: Kd of fluorescent probe NPN
Method: as §1, with “The analysis assumes that the protein has one binding site and 100% active, and that the binding is reversible and at equilibrium. Tested compounds were EβF (Bedoukian Research, Danbury, CT, USA), β-pinene, (−)-α-pinene and (+)-limonene (Sigma, St. Louis, MO).” left out

[4] = target: T2, NribOBP3; assay: Direct fluorescence titration of the probe NPN; type: binding; conditions: recombinant NribOBP3, 2 μM protein, 20 mM Tris-HCl pH 7.4, 22 °C; read-out: Kd of fluorescent probe NPN
Method: as §1, with “The analysis assumes that the protein has one binding site and 100% active, and that the binding is reversible and at equilibrium. Tested compounds were EβF (Bedoukian Research, Danbury, CT, USA), β-pinene, (−)-α-pinene and (+)-limonene (Sigma, St. Louis, MO).” left out

[5] = displacement of NPN (2 μM) from MvicOBP3/NPN complex, one site competitive binding model, read-out: Competitive inhibitor binding constant (Ki)
[6] = displacement of NPN (2 μM) from NribOBP3/NPN complex, one site competitive binding model, read-out: Competitive inhibitor binding constant (Ki)

Ki [1, 5] [µM]	Ki [2, 6] [µM]	SMILES	further results
0.1	5.2	C=CC(=C)CC/C=C(\C)CCC=C(C)C [(E)-β-farnesene]	
1.8	20.2	CC1=CCC2CC1C2(C)C (stereo not drawn) [(−)-α-pinene]	
		c1ccc(Nc2cccc3ccccc23)cc1 [NPN, N-phenyl-1-naphthylamine]	Kd [3]: 1.9 µM; Kd [4]: 9 µM
		C=C1CCC2CC1C2(C)C (stereo not drawn) [β-pinene]	Ki [1]: 2.3 µM; Ki [2]: 30.7 µM

SMILES	Ki [1, 5] [µM]	Ki [2, 6] [µM]	further results
C=C(C)C1CC=C(C)CC1 (single isomer, unassigned; (+)) [(+)-limonene]	2.5		
